Here are results for one compound from patent publication US20090170880A1, “Methods and Means for the Treatment of Cancer” (priority 2007, published 2009).

Data set [1] is described as follows: Brain penetration study, temozolomide i.v. in wild-type and knockout mice. In kind it is in vivo. Conditions: for AUC(0-t): 50 mg/kg, read-out: AUC0-7 h plasma. The procedure: Based on previous work by Kim et al (11) we have developed a high-performance liquid chromatographic assay for the determination for quantification of temozolomide in medium used for transwell experiments and in mouse plasma and brain tissue homogenates for in vivo pharmacokinetic studies. Separation/quantification was achieved using a Symmetry® C18 column (150×2.0 mm; ID) together with a mobile phase of 7.5% of methanol in 0.5% acetic acid in water, delivered at a flow rate of 0.2 ml/min and UV detection at 330 nm ((PDA996 photodiode array detector; Waters, Milford, Mass., USA or SF 757 detector; Kratos, Ramsey, N.J., USA). Medium from transwell experiments was 10-fold diluted with 0.2% acetic acid in water and 50 μl was injected directly into the HPLC system. Temozolomide was extracted from the acidified plasma and brain tissue homogenate samples (200 μl) with 1.0 ml ethyl acetate. The dried extracts were subsequently dissolved in 100 μl of 5% methanol in 0.2% acetic acid in water and 50 μl was injected into the HPLC system. External calibration was performed since no internal standard was available. The lower and upper limit of quantitation was 0.020 and 10.0 μg/ml, respectively. Samples above the upper limit of quantification were first diluted with acidified blank human plasma. All samples from in vivo studies were analyzed in duplicate in 2 independent analytical series and repeated once more when the results differed by more than 10%.
The brain penetration study comprised cohorts of animals receiving temozolomide (50 mg/kg) by intravenous injection in the tail vein. Each cohort consisted of at least 40 animals in which at least 6 animals were used per time point (t=15 min, 1, 2, 4 and 7 hours post temozolomide administration). […] The mice were anesthetized with metoxyflurane and blood samples were obtained by cardiac puncture and collected on ice in tubes containing potassium EDTA as anticoagulant. The tubes were placed in melting ice, centrifuged within 60 min (10 min, 5000 g, 4° C.) to separate the plasma fraction, which was transferred into clean vials, mixed with 1 M hydrochloric acid (10+1; v/v) and stored at −20° C. until analysis. Immediately after cardiac puncture the mice were killed by cervical dislocation and the brains were dissected and placed on ice. Within 60 min they were weighed and homogenized in 3 ml of ice-cold 1% of BSA in 0.05 M phosphate buffer adjusted to pH 2 and stored at −20° C. until further analysis.
Plasma and brain AUC0-7h values and standard errors were calculated by the linear trapezoidal rule using standard equations (14). The plasma half-life of temozolomide was calculated by linear regression analysis after log transformation of the concentration data using Microsoft Excel 2003. The brain-to-plasma ratio was calculated for each individual animal. The two-sided unpaired Student's t-test was used for statistical analysis of AUC values. Bonferroni's test for multiple comparisons was calculated using SPSS (v12.0.1; SPSS Inc, Chicago, Ill., USA) for brain and plasma levels and brain-to-plasma ratios determined at 2 h post temozolomide administration with the inhibitors and for analyzing the results of the in vivo efficacy study.

Data set [2] in a line: Transwell experiments, recovery of temozolomide in acceptor compartment. Conditions: after 30 min, transport medium pH 7.4. In kind it is in vitro ADME. The procedure:
The parental LLC pig-kidney (PK1) cell line and sublines transduced with murine Mdr1a or human MDR1 (12) and the parental Madine Darby Canine Kidney (MDCK) and murine Bcrp1 or human BCRP transduced sublines (13) were seeded on Transwell microporous polycarbonate membrane filters (3.0 μm pore size, 24 mm diameter; Costar Corning, N.Y., USA) at a density of 1×10^6 cells per well in 2 ml of MEM medium (Invitrogen Corporation, Carlsbad, Calif.) containing 10% v/v fetal calf serum. Cells were incubated at 37° C. in 5% CO2 for three days with one medium replacement after the first day. Two hours before the start of the experiment the medium in both compartments was replaced with 2 ml of OptiMEM medium (InVitrogen Corp.). At the start of the experiment the medium in the apical or basolateral compartment was replaced with 2 ml of freshly prepared OptiMEM medium containing 40 μg/ml of temozolomide. […] Zosuquidar (LY335979, 5 μM) was always added to the medium when doing experiments with MDCK cell lines to inhibit endogenous canine P-gp. Samples of 50 μl were collected every 30 min, for up to 2 h after start of the experiment. Because temozolomide is instable in medium at 37° C., we replaced one ml of the donor compartment by a freshly prepared aliquot every 30 min. […]

Setting [3] is: Bcrp1 knockout mice, i.v. 50 mg/kg.
The mark [4] stands for this setting: Bcrp, Mdr1ab knockout mice, i.v. 50 mg/kg.
The mark [5] stands for this setting: Mdr1ab knockout mice, i.v. 50 mg/kg.

Molecules are shown by their SMILES. Read-outs that look alike come from different tables or passages of the source.

By half-life is commonly meant how long it takes for the measured level to halve.

For the compound `Cn1nnc2c(C(N)=O)ncn2c1=O` [temozolomide, 8-carbamoyl-3-methyl-[3H]-imidazo[5,1-d]-1,2,3,5-tetrazin-4-one], in data set [1] (Bcrp1/Mdr1ab knockout mice, i.v. 50 mg/kg), the “increase of brain penetration / accumulation relative to wild-type” value is on record as 50%. The “AUC0-7 h, brain” value was 44.78 ± 1.88^1 μg/g · h in data set [1] (setting [3]); 56.46 ± 1.17^1,2,3 μg/g · h in data set [1] (setting [4]); 44.51 ± 1.56^1 μg/g · h in data set [1] (setting [5]); 37.73 ± 1.11 µg·h/g in data set [1] (Wild-type mice, i.v. 50 mg/kg). For the same compound, the T½plasma in data set [1] (setting [3]) was 0.719 ± 0.017^ns h; in data set [1] (setting [4]) it was 0.705 ± 0.014^ns h; in data set [1] (setting [5]), 0.757 ± 0.021^ns h; in data set [1] (Wild-type mice, i.v. 50 mg/kg), 0.689 ± 0.019 h. Also, the AUC(0-t) in data set [1] (FVB, mouse, plasma, iv, Bcrp1 knockout mice, i.v. 50 mg/kg) amounted to 63000 ± 2140 ng·h/mL; in data set [1] (FVB, mouse, plasma, iv, Bcrp, Mdr1ab knockout mice, i.v. 50 mg/kg), 64500 ± 1290 ng·h/mL; in data set [1] (FVB, mouse, plasma, iv, Mdr1ab knockout mice, i.v. 50 mg/kg), 62200 ± 2050 ng·h/mL; in data set [1] (FVB, mouse, plasma, iv, Wild-type mice, i.v. 50 mg/kg), 65400 ± 2000 ng·h/mL. For the same compound, the half-life in data set [1] (FVB, mouse, plasma, iv, mice, i.v. 50 mg/kg, read-out: plasma half-life, first-order elimination (converted)) is 42 min. For the same compound, the “enhancement of the brain penetration” value in data set [1] (absence of both P-gp and Bcrp1 versus wild-type) amounted to 1.5 fold. Besides, the “dose recovered in the acceptor compartment” value in data set [2] was “at least 5%”.
